From article PMC3848040 (Science (New York, N.Y.), 2013)

Experiments:
B3GALNT2dTM = biological target: T1, B3GALNT2dTM (Homo sapiens, UniProt Q8NCR0); assay: glycosyl transfer, MALDI-TOF/MS; type: biochemical; conditions: donor; acceptor GlcNAc-β4-Man-O-peptide
T1 sequence (Q8NCR0 24-500 limits assumed): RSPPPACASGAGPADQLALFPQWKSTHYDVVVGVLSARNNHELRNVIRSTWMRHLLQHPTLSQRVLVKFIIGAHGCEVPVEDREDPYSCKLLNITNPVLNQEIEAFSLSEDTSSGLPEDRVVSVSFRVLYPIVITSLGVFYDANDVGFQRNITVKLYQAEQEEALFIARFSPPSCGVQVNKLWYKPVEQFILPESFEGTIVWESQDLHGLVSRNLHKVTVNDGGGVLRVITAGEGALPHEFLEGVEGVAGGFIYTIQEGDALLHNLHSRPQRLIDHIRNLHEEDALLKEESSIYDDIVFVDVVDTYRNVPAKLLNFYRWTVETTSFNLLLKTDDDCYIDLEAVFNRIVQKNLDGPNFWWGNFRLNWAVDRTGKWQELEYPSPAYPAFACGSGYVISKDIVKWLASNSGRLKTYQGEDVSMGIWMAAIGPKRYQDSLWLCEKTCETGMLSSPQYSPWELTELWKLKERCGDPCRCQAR

GTDC2dTM = biological target: T2, GTDC2dTM (Homo sapiens, UniProt Q8NAT1); assay: glycosyl transfer, gel filtration and NMR of product; type: biochemical
T2 sequence (Q8NAT1 26-580 limits assumed): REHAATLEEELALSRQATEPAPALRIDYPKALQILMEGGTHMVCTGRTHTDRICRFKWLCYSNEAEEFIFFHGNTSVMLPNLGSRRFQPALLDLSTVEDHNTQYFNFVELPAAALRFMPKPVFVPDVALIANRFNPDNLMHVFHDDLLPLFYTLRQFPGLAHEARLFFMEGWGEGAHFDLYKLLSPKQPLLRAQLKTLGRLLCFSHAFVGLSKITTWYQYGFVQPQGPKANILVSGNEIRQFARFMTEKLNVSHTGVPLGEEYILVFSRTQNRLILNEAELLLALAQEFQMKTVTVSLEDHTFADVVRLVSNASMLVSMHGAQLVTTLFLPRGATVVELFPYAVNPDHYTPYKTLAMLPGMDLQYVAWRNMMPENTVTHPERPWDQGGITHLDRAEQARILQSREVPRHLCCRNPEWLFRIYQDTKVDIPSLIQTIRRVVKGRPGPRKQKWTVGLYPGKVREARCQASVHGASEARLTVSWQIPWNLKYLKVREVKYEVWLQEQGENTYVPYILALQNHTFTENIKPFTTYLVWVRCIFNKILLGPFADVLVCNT

## CC(=O)N[C@H]1[C@@H](OP(=O)(O)OP(=O)(O)OC[C@H]2O[C@@H](n3ccc(=O)[nH]c3=O)[C@H](O)[C@@H]2O)O[C@H](CO)[C@H](O)[C@@H]1O [UDP-GalNAc]
B3GALNT2dTM
  glycosyl transfer, MALDI-TOF/MS: incubated this protein with UDPGalNAc and the GlcNAc-β4-Man-O-peptide produced by the GTDC2dTM reaction

## Cc1cc(=O)oc2cc(O[C@H]3O[C@H](CO)[C@@H](O)[C@H](O)[C@@H]3O)ccc12 [Man-α-MU, 4-methylumbelliferyl-α-D-mannoside]
GTDC2dTM; acceptor, donor UDP-GlcNAc
  glycosyl transfer, gel filtration and NMR of product: conducted the transfer assay using fluorescently labeled mannoside (4-methylumbelliferyl-α-D-mannoside; Man-α-MU) as the acceptor

## CC(=O)N[C@H]1[C@@H](OP(=O)(O)OP(=O)(O)OC[C@H]2O[C@@H](n3ccc(=O)[nH]c3=O)[C@H](O)[C@@H]2O)O[C@H](CO)[C@@H](O)[C@@H]1O [UDP-GlcNAc]
GTDC2dTM; donor, acceptor Man-α-MU
  glycosyl transfer, gel filtration and NMR of product: Reactant of the GTDC2dTM assay using Man-α-MU and UDP-GlcNAc was separated
